Where “and” joins values, the source holds several entries; their conditions need not be identical. Equal entries are not always repeated. Inconclusive results and toxic doses are left out.

In the test the test system is L1210 leukemia ip in BDF1 mice, survival T/C. The experiment in a line: NCI In Vivo Anticancer Drug Screen. Data for tumor model L1210 Leukemia (intraperitoneal) in B6D2F1 (BDF1) mice. Conditions: endpoint: mean survival time, higher = longer survival. An outline of the steps:
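Value reflects the ratio of survival in compound-treated mice to survival in vehicle-treated controls, with both groups carrying the same transplanted tumor.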

[1] abbreviates: dose: 100.0 mg/kg/injection, schedule: Q04DX002 (ip), vehicle: saline.
The mark [2] stands for this setting: dose: 200.0 mg/kg/injection, schedule: Q04DX002 (ip), vehicle: saline.
Where [3] appears, read: dose: 100.0 mg/kg/injection, schedule: Q01DX009 (ip), vehicle: saline with Tween-80.
Setting [4] is: dose: 100.0 mg/kg/injection, schedule: Q04DX003 (ip), vehicle: saline with Tween-80.
The mark [5] stands for this setting: dose: 200.0 mg/kg/injection, schedule: Q01DX009 (ip), vehicle: saline with Tween-80.
Where [6] appears, read: dose: 200.0 mg/kg/injection, schedule: Q04DX003 (ip), vehicle: saline with Tween-80.
[7] abbreviates: dose: 400.0 mg/kg/injection, schedule: Q01DX009 (ip), vehicle: saline with Tween-80.
[8] abbreviates: dose: 400.0 mg/kg/injection, schedule: Q04DX003 (ip), vehicle: saline with Tween-80.
The mark [9] stands for this setting: dose: 30.0 mg/kg/injection, schedule: Q01DX Z (ip), vehicle: saline.
Setting [10] is: dose: 100.0 mg/kg/injection, schedule: Q01DX009 (ip), vehicle: Klucel (hydroxypropylcellulose) (HPC).
Where [11] appears, read: dose: 200.0 mg/kg/injection, schedule: Q01DX009 (ip), vehicle: Klucel (hydroxypropylcellulose) (HPC).
[12] abbreviates: dose: 400.0 mg/kg/injection, schedule: Q01DX009 (ip), vehicle: Klucel (hydroxypropylcellulose) (HPC).
Where [13] appears, read: dose: 100.0 mg/kg/injection, schedule: Q04DX002 (ip), vehicle: saline with Tween-80.
Setting [14] is: dose: 200.0 mg/kg/injection, schedule: Q04DX002 (ip), vehicle: saline with Tween-80.
[15] abbreviates: dose: 400.0 mg/kg/injection, schedule: Q04DX002 (ip), vehicle: saline with Tween-80.

`CC(=O)NCC(O)C(O)C(O)C(O)CO` (stereo not drawn): the T/C runs as follows: under setting [1], 98 % of control; under setting [2], 92 % of control; (dose: 400.0 mg/kg/injection, schedule: Q04DX002 (ip), vehicle: saline) 103 % of control.
Regarding `CCN(C(=O)C(F)(F)F)C1(c2ccc(Cl)cc2)CCCCC1SSSC1CCCCC1(c1ccc(Cl)cc1)N(CC)C(=O)C(F)(F)F` (stereo not drawn), the T/C under setting [3] is 106 % of control; the T/C under setting [4] was 87 % of control; the T/C under setting [5] is 98 % of control; the T/C under setting [6] was 89 % of control; the T/C under setting [7] is 108 % of control; the T/C under setting [8] is 89 % of control.
For the molecule `C=CC(=O)OCC(C)(C)C`, the T/C was 100 % of control and 103 % of control under setting [1]; 100 % of control and 107 % of control under setting [2]; 97 % of control (dose: 800.0 mg/kg/injection, schedule: Q04DX002 (ip), vehicle: saline).
In the case of `Nc1ncnc2c1ncn2C1CCCCC1`, the T/C runs as follows: (dose: 17.5 mg/kg/injection, schedule: Q01DX Z (ip), vehicle: carboxymethylcellulose (CMC)) 89 % of control; (dose: 34.0 mg/kg/injection, schedule: Q01DX Z (ip), vehicle: carboxymethylcellulose (CMC)) 98 % of control; (dose: 34.0 mg/kg/injection, schedule: Q01DX Z (oral), vehicle: carboxymethylcellulose (CMC)) 97 % of control; (dose: 68.0 mg/kg/injection, schedule: Q01DX Z (ip), vehicle: carboxymethylcellulose (CMC)) 102 % of control; (dose: 68.0 mg/kg/injection, schedule: Q01DX Z (oral), vehicle: carboxymethylcellulose (CMC)) 100 % of control; (dose: 136.0 mg/kg/injection, schedule: Q01DX Z (oral), vehicle: carboxymethylcellulose (CMC)) 102 % of control.
On to `O=C1C(Cl)=C(Nc2ccccc2)C(=O)C(Cl)=C1Nc1ccccc1`, for which the T/C is 87 % of control under setting [3]; 88 % of control under setting [4]; 87 % of control under setting [5]; 92 % of control under setting [6]; 94 % of control under setting [7]; 95 % of control under setting [8].
Consider `NC(N)=N/N=C/c1ccccn1`, for which the T/C is 94 % of control (dose: 15.0 mg/kg/injection, schedule: Q01DX Z (ip), vehicle: saline); 102 % of control under setting [9]; 95 % of control and 101 % of control (dose: 60.0 mg/kg/injection, schedule: Q01DX Z (ip), vehicle: saline); 103 % of control (dose: 60.0 mg/kg/injection, schedule: Q01DX Z (oral), vehicle: saline); 96 % of control and 98 % of control (dose: 120.0 mg/kg/injection, schedule: Q01DX Z (ip), vehicle: saline); 108 % of control (dose: 120.0 mg/kg/injection, schedule: Q01DX Z (oral), vehicle: saline). The T/C by setting is: (dose: 240.0 mg/kg/injection, schedule: Q01DX Z (oral), vehicle: saline) 103 % of control; (dose: 480.0 mg/kg/injection, schedule: Q01DX Z (oral), vehicle: saline) 107 % of control.
Take `O=C(/C=C/C=C\c1ccccc1)/C=C/C=C/c1ccccc1`: the T/C reads like this: (dose: 100.0 mg/kg/injection, schedule: Q01DX001 (ip), vehicle: Klucel (hydroxypropylcellulose) (HPC)) 91 % of control; under setting [10], 92 % of control; (dose: 200.0 mg/kg/injection, schedule: Q01DX001 (ip), vehicle: Klucel (hydroxypropylcellulose) (HPC)) 93 % of control; under setting [11], 92 % of control; (dose: 400.0 mg/kg/injection, schedule: Q01DX001 (ip), vehicle: Klucel (hydroxypropylcellulose) (HPC)) 93 % of control; under setting [12], 89 % of control.
Turning to `CN1CCC(OC(=O)C2CC(=O)NC(=O)C2)CC1`, the T/C reads like this: (dose: 100.0 mg/kg/injection, schedule: Q04DX003 (ip), vehicle: Klucel (hydroxypropylcellulose) (HPC)) 107 % of control; (dose: 200.0 mg/kg/injection, schedule: Q04DX003 (ip), vehicle: Klucel (hydroxypropylcellulose) (HPC)) 102 % of control; (dose: 400.0 mg/kg/injection, schedule: Q04DX003 (ip), vehicle: Klucel (hydroxypropylcellulose) (HPC)) 94 % of control.
Turning to `CC1(C)N=C(N)N=C(N)N1c1cccc(Br)c1`, the T/C by setting is: (dose: 2.5 mg/kg/injection, schedule: Q01DX Z (ip), vehicle: saline) 121 % of control; (dose: 11.0 mg/kg/injection, schedule: Q01DX Z (ip), vehicle: carboxymethylcellulose (CMC)) 117 % of control; (dose: 16.0 mg/kg/injection, schedule: Q01DX Z (ip), vehicle: saline) 162 % of control; (dose: 25.0 mg/kg/injection, schedule: Q01DX Z (ip), vehicle: saline) 168 % of control; (dose: 37.0 mg/kg/injection, schedule: Q01DX Z (ip), vehicle: carboxymethylcellulose (CMC)) 105 % of control; (dose: 50.0 mg/kg/injection, schedule: Q01DX Z (ip), vehicle: methylcellulose (MC)) 97 % of control. For the same molecule, the T/C is, setting by setting: (dose: 60.0 mg/kg/injection, schedule: Q01DX Z (ip), vehicle: carboxymethylcellulose (CMC)) 107 % of control; (dose: 75.0 mg/kg/injection, schedule: Q01DX001 (ip), vehicle: other) 103 % of control; (dose: 90.0 mg/kg/injection, schedule: Q01DX Z (ip), vehicle: carboxymethylcellulose (CMC)) 90 % of control; (dose: 150.0 mg/kg/injection, schedule: Q01DX001 (ip), vehicle: other) 108 % of control.
Take `CN(C)c1ccc(C=O)c([N+](=O)[O-])c1`: the T/C under setting [10] is 97 % of control, the T/C under setting [11] was 101 % of control and the T/C under setting [12] is 105 % of control.
In the case of `Cc1cc(C)nc(NCCCC(N)C(=O)O)n1` (stereo not drawn), the T/C was 100 % of control under setting [13], 95 % of control under setting [14] and 92 % of control under setting [15].
Regarding `Nc1nc(=O)n(C2CC(O)C(CO)O2)cc1F` (stereo not drawn), under setting [9], the T/C is 105 % of control.
As for `CNC/C(Cl)=N/S(=O)(=O)c1ccc(C)cc1`, the T/C by setting is: (dose: 12.5 mg/kg/injection, schedule: Q04DX002 (ip), vehicle: other) 106 % of control; (dose: 25.0 mg/kg/injection, schedule: Q04DX002 (ip), vehicle: other) 98 % of control; (dose: 50.0 mg/kg/injection, schedule: Q04DX002 (ip), vehicle: other) 95 % of control; (dose: 50.0 mg/kg/injection, schedule: Q04DX002 (ip), vehicle: saline with Tween-80) 96 % of control; under setting [13], 99 % of control; under setting [14], 96 % of control. In addition, under setting [15], the T/C is 108 % of control.
With `CCCCCCCCCC(=O)N1CCCN(C(=O)CCCCCCCCC)C1`, the T/C is 102 % of control (dose: 30.0 mg/kg/injection, schedule: Q01DX001 (ip), vehicle: saline); 98 % of control (dose: 100.0 mg/kg/injection, schedule: Q01DX001 (ip), vehicle: saline); 93 % of control (dose: 300.0 mg/kg/injection, schedule: Q01DX001 (ip), vehicle: saline).

For the origin of these results see PubChem BioAssay AID248 (DTP/NCI, 2004).
